In publication PMC2000878, “Module structure of interphotoreceptor retinoid-binding protein (IRBP) may provide bases for its complex role in the visual cycle – structure/function study of Xenopus IRBP” (BMC Biochemistry, 2007):
Read-outs that look alike come from different tables or passages of the source.

How the values were obtained:
Assay in all cases: Competitive fluorescence titration of all-trans retinol with 11-cis retinaldehyde
Format in all cases: binding
full-length Xenopus IRBP = biological target: T1, full-length Xenopus IRBP (Xenopus laevis, UniProt Q7SZI7)
T1 construct: We expressed the full-length IRBP as well as its individual modules as thioredoxin-fusion proteins using pTrxFus and pThioHis vectors; made in house; host or cells: E. coli Top10 (pThioHis)
Source text: In Figure 8B, full-length Xenopus IRBP was titrated with all-trans retinol in the presence of different fixed concentrations of 11-cis retinaldehyde. Binding of all-trans retinol to Xenopus IRBP was followed by monitoring the enhancement of its fluorescence. […] Equation 3 (see methods) was used to analyze the data generating the 3-dimensional representation of the fit shown graphically in Figure 8B.
(§1) To describe the displacement of all-trans retinol by 11-cis retinaldehyde, Equation 1 was modified to take into account the competition between the two ligands. The apparent dissociation constants for all-trans retinol measured under these conditions is related to the dissociation constant of 11-cis retinaldehyde through the following expression.
(§2) Kapp=Kdall−trans[1+Rt11−cis/Kd11−cis] MathType@MTEF@5@5@+=feaafiart1ev1aaatCvAUfKttLearuWrP9MDH5MBPbIqV92AaeXatLxBI9gBaebbnrfifHhDYfgasaacH8akY=wiFfYdH8Gipec8Eeeu0xXdbba9frFj0=OqFfea0dXdd9vqai=hGuQ8kuc9pgc9s8qqaq=dirpe0xb9q8qiLsFr0=vr0=vr0dc8meaabaqaciaacaGaaeqabaqabeGadaaakeaacqWGlbWsdaWgaaWcbaGaemyyaeMaemiCaaNaemiCaahabeaakiabg2da9iabdUealnaaDaaaleaacqWGKbazaeaacqWGHbqycqWGSbaBcqWGSbaBcqGHsislcqWG0baDcqWGYbGCcqWGHbqycqWGUbGBcqWGZbWCaaGcdaWadaqaaiabigdaXiabgUcaRmaalaaabaGaemOuai1aa0baaSqaaiabdsha0bqaaiabigdaXiabigdaXiabgkHiTiabdogaJjabdMgaPjabdohaZbaaaOqaaiabdUealnaaDaaaleaacqWGKbazaeaacqaIXaqmcqaIXaqmcqGHsislcqWGJbWycqWGPbqAcqWGZbWCaaaaaaGccaGLBbGaayzxaaaaaa@58DE@
(§3) The origin of the above expression is discussed in reviews dealing with competition assays. Substitution of equation 2 into equation 1 yields the following expression.
Fenh=C1+C2[Rtall−trans−(Rtall−trans+NPt+Kdall−trans+Kdall−transRt11−cis/Kd11−cis)^2−4NPtRtall−trans] […]

Xenopus IRBP Module 2 = biological target: T2, Xenopus IRBP Module 2 (Xenopus laevis, UniProt Q7SZI7)
T2 construct: cDNAs corresponding to the full-length IRBP, module 1, and module 2 were expressed in pThioHis; modules 3 and 4 were expressed in pTrxFus; made in house; host or cells: E. coli Top10 (pThioHis)
T2 sequence (Q7SZI7 319-617 limits assumed): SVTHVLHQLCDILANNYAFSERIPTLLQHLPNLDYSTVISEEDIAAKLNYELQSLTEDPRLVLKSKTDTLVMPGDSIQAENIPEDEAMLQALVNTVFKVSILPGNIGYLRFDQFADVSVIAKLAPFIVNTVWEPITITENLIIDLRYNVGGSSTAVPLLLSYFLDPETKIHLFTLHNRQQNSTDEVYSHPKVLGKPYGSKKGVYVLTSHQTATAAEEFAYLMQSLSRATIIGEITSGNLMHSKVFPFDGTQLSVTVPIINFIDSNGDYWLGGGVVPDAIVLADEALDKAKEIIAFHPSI
Method: (§4) Figure 9 Competitive inhibition by 11-cis retinaldehyde of all-trans retinol binding to the individual modules of Xenopus IRBP. Binding of all-trans retinol to the individual modules was measured by fluorescence enhancement in the presence of varying amounts of 11-cis retinal. Panels A through D correspond to modules 1 through 4 respectively. […] Three dimensional nonlinear regression was used to determine the number of binding sites, the dissociation constant of all-trans retinol, and the dissociation constant of 11-cis retinal for each of the individual modules. The concentrations of the proteins used in the titrations were as follows: module 1 (0.99 μM; panel A); module 2 (1.10 μM; panel B); module 3 (1.10 μM; panel C); module 4 (1.00 μM; panel D).
as §1, §2, §3
(§5) Fenh=C1+C2[Rtall−trans−(Rtall−trans+NPt+Kdall−trans+Kdall−transRt11−cis/Kd11−cis)^2−4NPtRtall−trans] MathType@MTEF@5@5@+=feaafiart1ev1aaatCvAUfKttLearuWrP9MDH5MBPbIqV92AaeXatLxBI9gBaebbnrfifHhDYfgasaacH8akY=wiFfYdH8Gipec8Eeeu0xXdbba9frFj0=OqFfea0dXdd9vqai=hGuQ8kuc9pgc9s8qqaq=dirpe0xb9q8qiLsFr0=vr0=vr0dc8meaabaqaciaacaGaaeqabaqabeGadaaakeaacqWGgbGrdaWgaaWcbaGaemyzauMaemOBa4MaemiAaGgabeaakiabg2da9iabdoeadnaaBaaaleaacqaIXaqmaeqaaOGaey4kaSIaem4qam0aaSbaaSqaaiabikdaYaqabaGcdaWadaqaaiabdkfasnaaDaaaleaacqWG0baDaeaacqWGHbqycqWGSbaBcqWGSbaBcqGHsislcqWG0baDcqWGYbGCcqWGHbqycqWGUbGBcqWGZbWCaaGccqGHsisldaGcaaqaamaabmaabaGaemOuai1aa0baaSqaaiabdsha0bqaaiabdggaHjabdYgaSjabdYgaSjabgkHiTiabdsha0jabdkhaYjabdggaHjabd6gaUjabdohaZbaakiabgUcaRiabd6eaojabdcfaqnaaBaaaleaacqWG0baDaeqaaOGaey4kaSIaem4saS0aa0baaSqaaiabdsgaKbqaaiabdggaHjabdYgaSjabdYgaSjabgkHiTiabdsha0jabdkhaYjabdggaHjabd6gaUjabdohaZbaakiabgUcaRmaalaaabaGaem4saS0aa0baaSqaaiabdsgaKbqaaiabdggaHjabdYgaSjabdYgaSjabgkHiTiabdsha0jabdkhaYjabdggaHjabd6gaUjabdohaZbaakiabdkfasnaaDaaaleaacqWG0baDaeaacqaIXaqmcqaIXaqmcqGHsislcqWGJbWycqWGPbqAcqWGZbWCaaaakeaacqWGlbWsdaqhaaWcbaGaemizaqgabaGaeGymaeJaeGymaeJaeyOeI0Iaem4yamMaemyAaKMaem4CamhaaaaaaOGaayjkaiaawMcaamaaCaaaleqabaGaeGOmaidaaOGaeyOeI0IaeGinaqJaemOta4Kaemiuaa1aaSbaaSqaaiabdsha0bqabaGccqWGsbGudaqhaaWcbaGaemiDaqhabaGaemyyaeMaemiBaWMaemiBaWMaeyOeI0IaemiDaqNaemOCaiNaemyyaeMaemOBa4Maem4CamhaaaqabaaakiaawUfacaGLDbaaaaa@A768@

Xenopus IRBP Module 3 = biological target: T3, Xenopus IRBP Module 3 (Xenopus laevis, UniProt Q7SZI7); conditions: protein 1.10 μM
T3 construct: cDNAs corresponding to the full-length IRBP, module 1, and module 2 were expressed in pThioHis; modules 3 and 4 were expressed in pTrxFus; made in house; host or cells: E. coli GI724 / GI698 (pTrxFus)
Method: as §4, §1, §2, §3, §5

Xenopus IRBP Module 4 = biological target: T4, Xenopus IRBP Module 4 (Xenopus laevis, UniProt Q7SZI7); conditions: protein 1.00 μM
T4 construct: cDNAs corresponding to the full-length IRBP, module 1, and module 2 were expressed in pThioHis; modules 3 and 4 were expressed in pTrxFus; made in house; host or cells: E. coli GI724 / GI698 (pTrxFus)
Method: as §4, §1, §2, §3, §5

[1] = competition with all-trans retinol, read-out: Kd 11-cis retinal
[2] = competition, in presence of 11-cis retinal, read-out: Kd All-trans retinol

T3 sequence (Q7SZI7 616-912): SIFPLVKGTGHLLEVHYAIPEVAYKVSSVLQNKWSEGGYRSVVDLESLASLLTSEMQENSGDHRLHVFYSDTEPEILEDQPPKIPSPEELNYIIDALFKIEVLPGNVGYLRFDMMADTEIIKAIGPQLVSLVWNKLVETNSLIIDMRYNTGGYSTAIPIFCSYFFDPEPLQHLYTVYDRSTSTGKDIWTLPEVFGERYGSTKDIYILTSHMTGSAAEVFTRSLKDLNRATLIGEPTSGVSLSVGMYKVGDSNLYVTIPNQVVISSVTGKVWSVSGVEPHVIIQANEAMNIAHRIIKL
T1 sequence (Q7SZI7 23-1219): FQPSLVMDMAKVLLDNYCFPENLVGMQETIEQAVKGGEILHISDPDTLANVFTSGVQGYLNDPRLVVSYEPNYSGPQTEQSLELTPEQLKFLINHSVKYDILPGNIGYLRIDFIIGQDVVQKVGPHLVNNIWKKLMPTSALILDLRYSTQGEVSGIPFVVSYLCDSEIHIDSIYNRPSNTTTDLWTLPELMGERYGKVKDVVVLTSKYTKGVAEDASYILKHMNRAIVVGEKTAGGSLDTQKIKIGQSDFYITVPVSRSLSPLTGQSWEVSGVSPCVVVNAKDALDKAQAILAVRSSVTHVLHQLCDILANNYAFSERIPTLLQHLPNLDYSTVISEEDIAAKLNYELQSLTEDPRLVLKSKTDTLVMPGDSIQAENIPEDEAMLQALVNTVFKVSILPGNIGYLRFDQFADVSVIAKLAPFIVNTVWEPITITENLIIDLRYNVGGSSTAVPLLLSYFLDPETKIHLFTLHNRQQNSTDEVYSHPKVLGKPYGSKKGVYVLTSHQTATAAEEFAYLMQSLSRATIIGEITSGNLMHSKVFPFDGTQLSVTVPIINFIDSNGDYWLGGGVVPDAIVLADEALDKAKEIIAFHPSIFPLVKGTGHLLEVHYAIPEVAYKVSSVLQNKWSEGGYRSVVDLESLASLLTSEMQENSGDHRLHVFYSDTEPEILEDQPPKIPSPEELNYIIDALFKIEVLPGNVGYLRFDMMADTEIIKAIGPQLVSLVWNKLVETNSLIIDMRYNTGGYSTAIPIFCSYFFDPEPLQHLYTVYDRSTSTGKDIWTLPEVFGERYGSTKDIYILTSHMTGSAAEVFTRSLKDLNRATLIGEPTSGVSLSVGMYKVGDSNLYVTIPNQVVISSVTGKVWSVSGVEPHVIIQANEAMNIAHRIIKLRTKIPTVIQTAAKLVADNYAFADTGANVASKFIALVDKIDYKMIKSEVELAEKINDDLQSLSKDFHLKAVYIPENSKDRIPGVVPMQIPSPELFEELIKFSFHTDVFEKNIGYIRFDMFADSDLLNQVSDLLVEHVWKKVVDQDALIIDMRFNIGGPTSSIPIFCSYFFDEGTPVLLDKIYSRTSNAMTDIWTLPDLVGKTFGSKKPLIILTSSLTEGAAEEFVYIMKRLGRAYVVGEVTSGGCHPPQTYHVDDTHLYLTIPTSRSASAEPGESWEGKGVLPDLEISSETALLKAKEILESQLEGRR
T4 sequence (Q7SZI7 923-1219): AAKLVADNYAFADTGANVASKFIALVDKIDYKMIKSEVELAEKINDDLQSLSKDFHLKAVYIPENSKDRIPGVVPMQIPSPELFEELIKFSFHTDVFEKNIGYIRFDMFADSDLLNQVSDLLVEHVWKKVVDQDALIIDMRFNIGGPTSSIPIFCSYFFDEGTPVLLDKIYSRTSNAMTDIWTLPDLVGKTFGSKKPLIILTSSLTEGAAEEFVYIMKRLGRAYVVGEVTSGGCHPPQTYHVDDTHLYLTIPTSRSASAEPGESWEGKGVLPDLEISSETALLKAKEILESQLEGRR

SMILES | Kd (full-length Xenopus IRBP; [1]) | Binding sites (N) (full-length Xenopus IRBP; competition, sites assumed shared by all-trans retinol and 11-cis retinal) | Kd (Xenopus IRBP Module 2; competition with all-trans retinol, protein 1.10 μM, read-out: Kd 11-cis retinal) | Binding sites (N) (Xenopus IRBP Module 2; competition, shared sites, protein 1.10 μM) | Kd (Xenopus IRBP Module 3; [1]) | Binding sites (N) (Xenopus IRBP Module 3; competition, shared sites) | Kd (Xenopus IRBP Module 4; [1]) | Binding sites (N) (Xenopus IRBP Module 4; competition, shared sites) | Kd (full-length Xenopus IRBP; competition, in presence of fixed concentrations of 11-cis retinaldehyde, read-out: Kd All-trans retinol) | Ligand selectivity of module 2 (Xenopus IRBP Module 2; comparison of Kd for all-trans retinol and 11-cis retinaldehyde) | Kd (Xenopus IRBP Module 2; competition, in presence of 11-cis retinal, protein 1.10 μM, read-out: Kd All-trans retinol) | Kd (Xenopus IRBP Module 3; [2]) | Kd (Xenopus IRBP Module 4; [2])
CC1=C(/C=C/C(C)=C/C=C/C(C)=C/C=O)C(C)(C)CCC1 [11-cis retinal] | 210 ± 100 nM | 3.53 ± 0.19 | 280 ± 130 nM | 1.22 ± 0.10 | 560 ± 110 nM | 1.90 ± 0.28 | 290 ± 50 nM | 1.47 ± 0.18 | – | – | – | – | –
CC1=C(/C=C/C(C)=C/C=C/C(C)=C/CO)C(C)(C)CCC1 [all-trans retinol] | – | – | – | – | – | – | – | – | 220 ± 130 nM | selectivity for all-trans retinol over 11-cis retinaldehyde | 74 ± 37 nM | 840 ± 220 nM | 410 ± 90 nM
